Holding throughout (type): in vivo, mouse
Series [1] can be described thus: Bile weight after a single oral administration in DIO mice. The conditions noted are these: 30 mg/kg + sitagliptin 10 mg/kg p.o., 6, 12, 18, 24 h. The procedure:
Bile Weight after a Single Oral Administration of the Compound
In this study, we evaluated if the observed GLP-1 elevation (induced by the compounds of the present invention) may be associated with gallbladder filling. We treated mice with Compound 268 and monitored the bile weight (a measure that indicated gallbladder filling) to determine if the compound retained more bile in the gallbladder as compared to the control mice (i.e., vehicle alone). A time course study was performed to measure weight of the bile aspirated from the gallbladder after oral administration of Compound 268 (30 mg/kg) in high fat diet induced obese (DIO) mice. In this study, GLP-1 levels were also measured at each time point (FIG. 9).
Approximately 12 week old DIO male mice (obtained from Taconic) were acclimated in the testing facility for over two weeks. The mice were provided a high fat diet [Research Diet D12492 (60% Fat kcal)] while in the testing facility. […] The blood samples were distributed as follows: 150-200 μL of blood were placed in an EDTA K^2+ tube containing 5 μL of 40 mg/mL aprotinin (Sigma A1153) and 1 μL of 10 mM sitagliptin (Sigma 58576) to be used for GLP-1 measurements; the remaining blood (≥250 μL) was placed in an EDTA K^2+ tube and plasma was processed for analytical chemistry and analyzed by LCMS/MS method as described in Example 81. […]

Series [2] is described as follows: Food intake over multiple weeks of dosing in DIO mice. The conditions noted are these: 30 mg/kg BID p.o., 6 weeks. From the text: (§1) In the next series of studies (Examples 93-99), Male DIO mice were received at 12 weeks of age (from Taconic), and were single-housed at the testing facility and acclimated for at least 2 weeks. The mice were provided a high fat diet [Research Diet D12492 (60% Fat kcal)] while in the testing facility. Before the study initiation, the animals were randomized into 5 experimental groups by body weight. The vehicle group contained only 0.5% carboxymethylcellulose (medium viscosity)+0.25% Tween-80. The second group contained 10 mg/kg of the DPP-IV inhibitor Sitagliptin while the third group contained 30 mg/kg Compound 268. The fourth group contained the combination of 10 mg/kg Sitagliptin and 30 mg/kg Compound 268. The fifth group was the positive control for weight loss, Rimonabant. All mice were dosed BID at approximately 6:00 am and again at approximately 4:00 pm. The positive control rimonabant was administered at a dose of 10 mg/kg in the afternoon and the morning dosing was vehicle (no compound). […]
Compounds of the present invention were dosed for multiple weeks and were evaluated for their ability to cause mice to have a lower food intake. […]
The HFD (Research Diets, D12492, 60% fat kcal) was placed at the bottom of the cage on a singly-housed animal. […] Daily food intake is calculated by averaging over a 3 or 4 day period every week.

For series [3], the system named is blood glucose. Put plainly: OGTT and insulin measurements after 5 weeks of dosing in DIO mice.
Text: as §1
Compounds of the present invention were dosed for multiple weeks and were evaluated for their effectiveness in glycemic control. […] Insulin is also analyzed using Meso Scale Discovery according to the manufacturer's directions (item number K152BZC). Plasma samples ([…]) were loaded in duplicate onto the assay plate and measured against internal standards.

A short description of series [4]: 6-week DEXA body composition analysis in DIO mice. The conditions noted are these: 6 weeks BID dosing. An excerpt: In the next series of studies (Examples 93-99), Male DIO mice were received at 12 weeks of age (from Taconic), and were single-housed at the testing facility and acclimated for at least 2 weeks. The mice were provided a high fat diet [Research Diet D12492 (60% Fat kcal)] while in the testing facility. Before the study initiation, the animals were randomized into 5 experimental groups by body weight. The vehicle group contained only 0.5% carboxymethylcellulose (medium viscosity)+0.25% Tween-80. The second group contained 10 mg/kg of the DPP-IV inhibitor Sitagliptin while the third group contained 30 mg/kg Compound 268. The fourth group contained the combination of 10 mg/kg Sitagliptin and 30 mg/kg Compound 268. The fifth group was the positive control for weight loss, Rimonabant. All mice were dosed BID at approximately 6:00 am and again at approximately 4:00 pm. The positive control rimonabant was administered at a dose of 10 mg/kg in the afternoon and the morning dosing was vehicle (no compound).
6-Week Dexa Analysis after Multiple Weeks of Dosing Compounds
Compounds of the present invention were dosed for multiple weeks and the mice were analyzed to determine whether weight loss seen in Example 93 was due to a loss in fat or lean mass.
In this example, the protocol from Example 93 was utilized. The day of experiment, the mice were anesthetized using 2.5% avertin [tert-amyl alcohol (Aldrich #15,256-3) and 2,2,2-tribromoethanol (Aldrich # T4, 840-2)]. Their body composition was assessed using the PIXImus2 X-ray unit (GE Lunar Corporation, Madison, Wis.) connected to a computer equipped with LUNAR PIXImus2 software. The head region of each mouse was excluded from the analysis. The following measurements were automatically measured or calculated by the PIXImus2 software: bone mineral density (BMD), bone mineral content (BMC), bone area (B Area), tissue area (T Area), percent fat, and total tissue mass (TTM). Fat mass, the percentage of lean mass, and lean mass, were calculated manually as follows: % Lean=100−% Fat Lean Mass=TTM×(100−% Fat) Fat Mass=TTM×% Fat

The structures appear in SMILES notation.

With `N#Cc1ccc(CCNC(=O)[C@@H]2CCN2c2cc(N3CCC(CCNC(=O)NCCC(=O)O)CC3)nc(C(F)(F)F)n2)cc1` [Compound 268, (S)-3-(3-(2-(1-(6-(2-((4-cyanophenethyl)carbamoyl)azetidin-1-yl)-2-(trifluoromethyl)pyrimidin-4-yl)piperidin-4-yl)ethyl)ureido)propanoic acid], the bile weight entry in series [1] is “did not cause any significant increase in bile weight”. The food intake entry in series [2] was “minor, but steady effect on food intake”. Further, the “glucose levels in OGTT after 5 weeks of dosing” value in series [3] (30 mg/kg + sitagliptin 10 mg/kg BID, versus vehicle) is given as “reduced the glucose levels relative to vehicle”. Moreover, in series [3] (BID dosing), the “insulin levels in OGTT after 5 weeks of dosing” value is reported as “increased the sensitivity of the mice to insulin”. Further, in series [4], the “fat mass versus lean mass (DEXA)” value is on record as “due to a loss in the Fat Mass” and the “loss in weight / total tissue mass (DEXA)” value was “about the same loss in weight”.

Values taken from patent publication US10654834B2 (Venenum Biodesign, LLC, priority 2016, dated 2020).
